Results from PubChem BioAssay (NCI).
Where “and” joins values, the source holds several entries; their conditions need not be identical. Equal entries are not always repeated.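 How tested: cells in 96-well plates exposed to compound for 48 hours at five concentrations. Abbreviation: GI50, concentration required for 50% inhibition of growth. Definition used: TGI = concentration required for complete inhibition of growth.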

What was measured:
Experiment in all cases: inhibition of tumour cell growth, NCI panel, 48 h
A549 NSCLC = test system: A549 NSCLC
HOP-62 NSCLC = test system: HOP-62 NSCLC
HOP-92 NSCLC = test system: HOP-92 NSCLC
IGROV1 ovarian = test system: IGROV1 ovarian
MDA-MB-231 breast = test system: MDA-MB-231 breast
OVCAR-4 ovarian = test system: OVCAR-4 ovarian
U251 CNS = test system: U251 CNS
UO-31 renal = test system: UO-31 renal
SK-MEL-2 melanoma = test system: SK-MEL-2 melanoma
RPMI-8226 leukemia = test system: RPMI-8226 leukemia

Compound	TGI (A549 NSCLC)	TGI (HOP-62 NSCLC)	TGI (HOP-92 NSCLC) [µM]	TGI (IGROV1 ovarian)	TGI (MDA-MB-231 breast) [µM]	TGI (OVCAR-4 ovarian)	TGI (U251 CNS) [µM]	TGI (UO-31 renal)	TGI (SK-MEL-2 melanoma) [µM]	TGI (RPMI-8226 leukemia)	GI50 (A549 NSCLC) [µM]	GI50 (HOP-62 NSCLC) [µM]	GI50 (OVCAR-4 ovarian) [µM]	GI50 (SK-MEL-2 melanoma) [µM]	GI50 (UO-31 renal) [µM]
CC1(C)CO[P@@](=S)(c2ccccn2)O[C@@H]1c1ccccc1	> 100 µM	> 100 µM	> 100	> 100 µM	> 100	> 100 µM	> 100	> 100 µM	–	–	–	–	–	–	–
O=C(O)c1nc2ccc(C(F)(F)F)cc2nc1Nc1ccc(Cl)c(Cl)c1	–	20.6 µM	–	34.7 µM	26.7	76.1 µM	14.7	18.2 µM	11.2	–	–	–	–	–	–
CC(=O)O[C@H]1CC[C@@]2(C)C(=CC[C@@H]3[C@@H]2CC[C@]2(C)c4c(n[nH]c4C)C[C@@H]32)C1	33.9 µM	37.8 µM	39.8	38.8 µM	38.4	33.3 µM	31.3	33.8 µM	–	–	–	–	–	–	–
Nc1nc2ccc(Sc3ccc4nc(N)[nH]c(=O)c4c3)cc2c(=O)[nH]1	> 100 µM	–	> 100	> 100 µM	> 100	> 100 µM	> 100	> 100 µM	> 100	> 100 µM	–	–	–	–	–
O=C1NC(Nc2ccccc2)=N/C1=C\c1c(Cl)cccc1Cl	52.1 µM	> 100 µM	39.9	62.4 µM	–	25.5 µM	37.6	18.4 µM	49	> 100 µM	–	–	–	–	–
Cc1cccc2[nH]c3c(c(O)cc4[nH]c5cccc(C)c5c(=O)c43)c(=O)c12	> 10 µM	> 10 µM	–	> 10 µM	> 10	> 10 µM	> 10	–	> 10	> 10 µM	–	–	–	–	–
O=C1C[C@@]23CCC4(CC2CCC[C@H]3O1)OCCO4 (some centres undefined)	> 100 µM	> 100 µM	> 100	> 100 µM	> 100	> 100 µM	> 100	–	> 100	> 100 µM	–	–	–	–	–
O=[N+]([O-])c1ccc(C2ON=C(c3ccccc3)N2C23CC4CC(CC(C4)C2)C3)cc1 (centres undefined)	> 10 µM	> 10 µM	> 10	> 10 µM	> 10	> 10 µM	> 10	–	> 10	> 10 µM	–	–	–	–	–
O=c1cc(-c2ccccc2)[nH]c2cc(F)cc(F)c12	> 100 µM	> 100 µM	> 100	> 100 µM	–	> 100 µM	> 100	> 100 µM	84.4	> 100 µM	–	–	–	–	–
C/C(=N\NC(=O)c1ccc(Cl)cc1)c1nc2ncccc2[nH]1	> 100 µM	> 100 µM	–	> 100 µM	> 100	47.9 µM	> 100	> 100 µM	> 100	> 100 µM	–	–	–	–	–
CCOC(=O)c1sc2c(c1OC(=O)c1cc(OC)c(OC)c(OC)c1)c(=O)n(-c1ccccc1)c(=S)n2-c1ccccc1	> 100 µM	> 100 µM	95.3	> 100 µM	> 100	> 100 µM	> 100	–	–	> 100 µM	–	–	–	–	–
COc1cc(C(=O)N[C@H]2CCc3cc(OC)c(OC)c(OC)c3-c3ccc(SC)c(=O)cc32)cc(OC)c1OC	25 µM and > 100 µM	25 µM and > 100 µM	25	25 µM and 62.7 µM	–	25 µM and > 100 µM	0.0812	25 µM and 22.2 µM	–	25 µM and > 100 µM	0.017	0.47	0.0285	0.02	0.266
O=c1[nH]nc(-c2ccccc2)n1/N=C/c1ccccc1O	> 100 µM	–	> 100	> 100 µM	> 100	> 100 µM	> 100	> 100 µM	> 100	> 100 µM	–	–	–	–	–
O=Cc1ccc(OC[C@H]2COC(=O)N2)cc1	> 100 µM	> 100 µM	–	> 100 µM	> 100	> 100 µM	> 100	> 100 µM	> 100	–	–	–	–	–	–
Cc1cccc2oc3c(c(=O)c12)CC(O)C(C)(C)O3 (centres undefined)	> 100 µM	> 100 µM	> 100	> 100 µM	–	> 100 µM	> 100	> 100 µM	> 100	> 100 µM	–	–	–	–	–
O=C(c1cccs1)c1nccc2c1cnc1ccccc12	> 100 µM	> 100 µM	> 100	–	> 100	> 100 µM	> 100	> 100 µM	> 100	> 100 µM	–	–	–	–	–
CC1(C)OC(=S)N(c2ccccc2)C12C=Cc1cc3ccccc3nc1S2 (centres undefined)	> 100 µM	> 100 µM	> 100	> 100 µM	–	–	> 100	> 100 µM	> 100	> 100 µM	–	–	–	–	–
CC1(C)CC(=O)c2c(nc3c(ccc4ccccc43)c2-c2ccc(NC(=O)CCC(=O)Nc3ccc(-c4c5c(nc6c4ccc4ccccc46)CC(C)(C)CC5=O)cc3)cc2)C1	> 100 µM	> 100 µM	> 100	> 100 µM	> 100	–	> 100	> 100 µM	> 100	> 100 µM	–	–	–	–	–
Clc1ccc(-c2cc(-c3cc4cc(Br)ccc4nc3Cl)on2)cc1	> 50 µM	> 50 µM	> 50	> 50 µM	–	> 50 µM	–	> 50 µM	21.9	41.7 µM	–	–	–	–	–
FC(F)(F)c1ccc2c(c1)nc1n2C(c2c(Cl)cccc2Cl)SC1 (centres undefined)	38.6 µM	31 µM	37	47.7 µM	35.7	43.4 µM	38.3	31.8 µM	40.8	–	–	–	–	–	–
COc1ccc2cc(CNCCCCCCCCNCc3ccc4cc(OC)ccc4c3)ccc2c1	> 100 µM	10.2 µM	10	> 100 µM	> 100	9.55 µM	6.66	–	24.7	12.2 µM	–	–	–	–	–
COc1cc(C(=O)Oc2c(C(C)=O)sc3c2c(=O)n(-c2ccccc2)c(=S)n3-c2ccccc2)cc(OC)c1OC	78.3 µM	67.1 µM	55.8	43.5 µM	88.8	64.2 µM	77.8	–	–	59.9 µM	–	–	–	–	–
O=c1[nH]ncc2[nH]c3c4ccccc4ccc3c12	65.6 µM	> 100 µM	87.1	–	–	> 100 µM	90.7	> 100 µM	–	> 100 µM	–	–	–	–	–
